# Data from PubChem BioAssay AID1918932 (Molecular Pharmacology Branch, DTP, NCI, 2023).
# Where “and” joins values, the source holds several entries; their conditions need not be identical. Equal values may be shown once.
# System: 171881-019-R-J1-PDC complex spheroid viability
# Test: Anticancer human tumor 171881-019-R-J1-PDC patient-derived invasive breast carcinoma cell line growth inhibition
# Conditions: for viability, T/C: stronger effect = lower value
# Summary of the method: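 Drug combinations with the LSD1 inhibitor iadademstat tested on tumor cells co-cultured as spheroids with endothelial cells and mesenchymal stem cells. Concentrations descended in half-log increments from clinical Cmax or 10 microM.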
# [1] = curve of first compound, second compound 0.1 µM
# [2] = curve of first compound, second compound 0.316 µM
# [3] = curve of first compound, second compound 1 µM
# [4] = curve of first compound, second compound 3.16 µM
# [5] = curve of first compound, second compound 10 µM
# [6] = second compound 0.1 µM, first compound 0.000949 µM
# [7] = second compound 0.1 µM, first compound 0.003 µM
# [8] = second compound 0.1 µM, first compound 0.00949 µM
# [9] = second compound 0.1 µM, first compound 0.03 µM
# [10] = second compound 0.1 µM, first compound 0.0949 µM
# [11] = second compound 0.1 µM, first compound 0.3 µM
# [12] = second compound 0.316 µM, first compound 0.000949 µM
# [13] = second compound 0.316 µM, first compound 0.003 µM
# [14] = second compound 0.316 µM, first compound 0.00949 µM
# [15] = second compound 0.316 µM, first compound 0.03 µM
# [16] = second compound 0.316 µM, first compound 0.0949 µM
# [17] = second compound 0.316 µM, first compound 0.3 µM
# [18] = second compound 1 µM, first compound 0.000949 µM
# [19] = second compound 1 µM, first compound 0.003 µM
# [20] = second compound 1 µM, first compound 0.00949 µM
# [21] = second compound 1 µM, first compound 0.03 µM
# [22] = second compound 1 µM, first compound 0.0949 µM
# [23] = second compound 1 µM, first compound 0.3 µM
# [24] = second compound 3.16 µM, first compound 0.000949 µM
# [25] = second compound 3.16 µM, first compound 0.003 µM
# [26] = second compound 3.16 µM, first compound 0.00949 µM
# [27] = second compound 3.16 µM, first compound 0.03 µM
# [28] = second compound 3.16 µM, first compound 0.0949 µM
# [29] = second compound 3.16 µM, first compound 0.3 µM
# [30] = second compound 10 µM, first compound 0.000949 µM
# [31] = second compound 10 µM, first compound 0.003 µM
# [32] = second compound 10 µM, first compound 0.00949 µM
# [33] = second compound 10 µM, first compound 0.03 µM
# [34] = second compound 10 µM, first compound 0.0949 µM
# [35] = second compound 10 µM, first compound 0.3 µM
# 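Note: spheroids exposed to agents for 7 days after 3 days growth.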
structure (smiles),measurement,setting,value
Nc1ncn(C2CC(O)C(CO)S2)c(=O)n1 (configuration not stated) + NC1CC1c1ccc(-c2cccc(O)c2)cc1,IC50,[1],93.9 nM
same,IC50,[2],119 nM
same,IC50,[3],102 nM
same,IC50,[4],99.3 nM
same,IC50,[5],80.2 nM
same,"viability, T/C",[6],101%
same,"viability, T/C",[7],106%
same,"viability, T/C",[8],102%
same,"viability, T/C",[9],75.3%
same,"viability, T/C",[10],52.3%
same,"viability, T/C",[11],34.4%
same,"viability, T/C",[12],111%
same,"viability, T/C",[13],106%
same,"viability, T/C",[14],101%
same,"viability, T/C",[15],75.8%
same,"viability, T/C",[16],56.2%
same,"viability, T/C",[17],32.1%
same,"viability, T/C",[18],108%
same,"viability, T/C",[19],95.7%
same,"viability, T/C",[20],98.1%
same,"viability, T/C",[21],76.8%
same,"viability, T/C",[22],51.4%
same,"viability, T/C",[23],30.3%
same,"viability, T/C",[24],95.1%
same,"viability, T/C",[25],90.8%
same,"viability, T/C",[26],88.7%
same,"viability, T/C",[27],69.2%
same,"viability, T/C",[28],52.1%
same,"viability, T/C",[29],30.1%
same,"viability, T/C",[30],75.8%
same,"viability, T/C",[31],71.8%
same,"viability, T/C",[32],81.3%
same,"viability, T/C",[33],61.7%
same,"viability, T/C",[34],48.9%
same,"viability, T/C",[35],31%
Nc1ccn(C2OC(CO)C(O)C2(F)F)c(=O)n1 (configuration not stated) + NC1CCC(NC2CC2c2ccccc2)CC1,IC50,[1],> 300 nM
same,IC50,[2],> 300 nM
same,IC50,[3],> 300 nM
same,IC50,[4],> 300 nM
same,IC50,[5],> 300 nM
same,"viability, T/C",[6],77.4%
same,"viability, T/C",[7],53.8%
same,"viability, T/C",[8],56.2%
same,"viability, T/C",[9],59.2%
same,"viability, T/C",[10],57.8%
same,"viability, T/C",[11],55.6%
same,"viability, T/C",[12],77.7%
same,"viability, T/C",[13],54.9%
same,"viability, T/C",[14],54.6%
same,"viability, T/C",[15],58.6%
same,"viability, T/C",[16],56.4%
same,"viability, T/C",[17],54.3%
same,"viability, T/C",[18],85.6%
same,"viability, T/C",[19],56.5%
same,"viability, T/C",[20],57.8%
same,"viability, T/C",[21],60.4%
same,"viability, T/C",[22],58%
same,"viability, T/C",[23],54.7%
same,"viability, T/C",[24],84.8%
same,"viability, T/C",[25],56%
same,"viability, T/C",[26],60.8%
same,"viability, T/C",[27],63.4%
same,"viability, T/C",[28],60.1%
same,"viability, T/C",[29],54.7%
same,"viability, T/C",[30],90.5%
same,"viability, T/C",[31],62.5%
same,"viability, T/C",[32],64%
same,"viability, T/C",[33],70%
same,"viability, T/C",[34],68.5%
same,"viability, T/C",[35],64.1%
COc1ccc([C@@H](O)c2cc(-c3ncnc4cc(N5CCOCC5)ccc34)c(F)cc2Cl)nn1 + NC1CCC(NC2CC2c2ccccc2)CC1,IC50,[1],1210 nM
same,IC50,[2],1150 nM
same,IC50,[3],1060 nM
same,IC50,[4],1040 nM
same,IC50,[5],957 nM
same,"viability, T/C","second compound 0.1 µM, first compound 0.0316 µM",94.6%
same,"viability, T/C","second compound 0.1 µM, first compound 0.1 µM",107%
same,"viability, T/C","second compound 0.1 µM, first compound 0.316 µM",106%
same,"viability, T/C","second compound 0.1 µM, first compound 1 µM",58.3%
same,"viability, T/C","second compound 0.1 µM, first compound 3.16 µM",11.3%
same,"viability, T/C","second compound 0.1 µM, first compound 10 µM",6.63%
same,"viability, T/C","second compound 0.316 µM, first compound 0.0316 µM",94.8%
same,"viability, T/C","second compound 0.316 µM, first compound 0.1 µM",104%
same,"viability, T/C","second compound 0.316 µM, first compound 0.316 µM",112%
same,"viability, T/C","second compound 0.316 µM, first compound 1 µM",55.7%
same,"viability, T/C","second compound 0.316 µM, first compound 3.16 µM",10.6%
same,"viability, T/C","second compound 0.316 µM, first compound 10 µM",5.9%
same,"viability, T/C","second compound 1 µM, first compound 0.0316 µM",86.7%
same,"viability, T/C","second compound 1 µM, first compound 0.1 µM",101%
same,"viability, T/C","second compound 1 µM, first compound 0.316 µM",109%
same,"viability, T/C","second compound 1 µM, first compound 1 µM",52.3%
same,"viability, T/C","second compound 1 µM, first compound 3.16 µM",10.4%
same,"viability, T/C","second compound 1 µM, first compound 10 µM",5.85%
same,"viability, T/C","second compound 3.16 µM, first compound 0.0316 µM",99.8%
same,"viability, T/C","second compound 3.16 µM, first compound 0.1 µM",93.6%
same,"viability, T/C","second compound 3.16 µM, first compound 0.316 µM",107%
same,"viability, T/C","second compound 3.16 µM, first compound 1 µM",51.3%
same,"viability, T/C","second compound 3.16 µM, first compound 3.16 µM",9.78%
same,"viability, T/C","second compound 3.16 µM, first compound 10 µM",5.03%
same,"viability, T/C","second compound 10 µM, first compound 0.0316 µM",103%
same,"viability, T/C","second compound 10 µM, first compound 0.1 µM",115%
same,"viability, T/C","second compound 10 µM, first compound 0.316 µM",108%
same,"viability, T/C","second compound 10 µM, first compound 1 µM",47.6%
same,"viability, T/C","second compound 10 µM, first compound 3.16 µM",7.96%
same,"viability, T/C","second compound 10 µM, first compound 10 µM",3.23%
CC[C@@]1(O)C(=O)OCc2c1cc1n(c2=O)Cc2cc3c(CN(C)C)c(O)ccc3nc2-1,"viability, T/C",compound 0.000316 µM,90.9% and 99.1%
same,"viability, T/C",compound 0.001 µM,116% and 105%
same,"viability, T/C",compound 0.00316 µM,129% and 84.4%
same,"viability, T/C",compound 0.01 µM,64.3% and 70.4%
same,"viability, T/C",compound 0.0316 µM,67.5% and 66%
same,"viability, T/C",compound 0.1 µM,46.6% and 37.6%
same,IC50,curve of compound,> 100 nM and 55.2 nM
CCc1c2c(nc3ccc(O)cc13)-c1cc3c(c(=O)n1C2)COC(=O)[C@]3(O)CC + NC1CC1c1ccc(-c2cccc(O)c2)cc1,IC50,[1],< 0.949 nM
same,IC50,[2],< 0.949 nM
same,IC50,[3],< 0.949 nM
same,IC50,[4],< 0.949 nM
same,IC50,[5],< 0.949 nM
same,"viability, T/C",[6],44.7%
same,"viability, T/C",[7],30.8%
same,"viability, T/C",[8],25.1%
same,"viability, T/C",[9],15.4%
same,"viability, T/C",[10],21.5%
same,"viability, T/C",[11],19.3%
same,"viability, T/C",[12],49%
same,"viability, T/C",[13],37.4%
same,"viability, T/C",[14],17.8%
same,"viability, T/C",[15],20%
same,"viability, T/C",[16],16.7%
same,"viability, T/C",[17],22.7%
same,"viability, T/C",[18],36.3%
same,"viability, T/C",[19],22.2%
same,"viability, T/C",[20],8.77%
same,"viability, T/C",[21],16.8%
same,"viability, T/C",[22],13.8%
same,"viability, T/C",[23],18.6%
same,"viability, T/C",[24],22.5%
same,"viability, T/C",[25],22.6%
same,"viability, T/C",[26],5.26%
same,"viability, T/C",[27],13.8%
same,"viability, T/C",[28],14.6%
same,"viability, T/C",[29],5.74%
same,"viability, T/C",[30],26.9%
same,"viability, T/C",[31],14.8%
same,"viability, T/C",[32],2.56%
same,"viability, T/C",[33],8.5%
same,"viability, T/C",[34],7.12%
same,"viability, T/C",[35],4.11%
